# Assay results as given in patent US20160193216A1 (Nimbus Iris, Inc., priority 2012, published 2016).
# Target: T1, IRAK4 (Homo sapiens, UniProt Q9NWZ3)
# T1 sequence (Q9NWZ3 1-460): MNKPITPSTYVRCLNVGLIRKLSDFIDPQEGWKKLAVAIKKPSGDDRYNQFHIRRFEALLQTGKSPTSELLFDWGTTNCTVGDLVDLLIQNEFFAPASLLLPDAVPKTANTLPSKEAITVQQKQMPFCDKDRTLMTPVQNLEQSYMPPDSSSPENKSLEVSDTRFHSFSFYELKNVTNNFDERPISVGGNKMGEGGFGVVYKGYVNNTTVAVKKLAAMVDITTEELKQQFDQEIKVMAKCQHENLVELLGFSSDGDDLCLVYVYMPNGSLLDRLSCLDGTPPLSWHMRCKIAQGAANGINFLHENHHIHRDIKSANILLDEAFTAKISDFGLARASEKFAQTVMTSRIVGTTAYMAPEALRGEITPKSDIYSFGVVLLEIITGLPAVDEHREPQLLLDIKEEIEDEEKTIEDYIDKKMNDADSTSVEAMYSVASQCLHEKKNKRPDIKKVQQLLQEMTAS
# Assay: IRAK-4 activity inhibition assay (Caliper)
# Format: biochemical
# Conditions: 37 μM ATP, 3.5 nM IRAK4
# Experimental: A 1× kinase base buffer was prepared from 50 mM HEPES, pH 7.5 and 0.0015% Brij-35. A stop buffer was prepared from 100 mM HEPES, pH 7.5, 0.015% Brij-35, 0.2% Coating Reagent #3, and 50 mM EDTA.
# Test compound was diluted to 50× of the final desired highest inhibitor concentration in reaction by 100% DMSO. 100 μl of this compound dilution was transferred to a well in a 96-well plate.
# Test compound was serially diluted by transferring 30 μl to 60 μl of 100% DMSO in the next well and so forth for a total of 10 concentrations. 100 μl of 100% DMSO was added to two empty wells for no compound control and no enzyme control in the same 96-well plate.
# A new 96-well plate was marked as intermediate plate. 5 μl of compound serial dilution was transferred from source plate to the corresponding wells of the intermediate plate. 45 μl of 1× kinase base buffer (KB buffer) was added to each well of the intermediate plate. The intermediate plate was placed for 10 min on a shaker.
# 5 μl of each well was transferred from the 96-well intermediate plate to a 384-well plate in duplicates. […] A2 of the 96-well plate is transferred to A3 and A4 of the 384-well plate, and so on.
# IRAK4 and DTT in 1× kinase base buffer was added.
# Assay plate already contained 5 μl of compound in 10% DMSO. Added 10 μl of 2.5× enzyme solution to each well of the 384-well assay plate, except no enzyme control wells. […] Added 10 μl of 1× kinase base buffer to no enzyme control wells in the assay plate. Incubated at room temperature for 10 min.
# Added 10 μl of 2.5× peptide solution to each well of the 384-well assay plate. […] Incubated at 28° C. for 40 minutes. Added 25 μl of stop buffer to stop reaction. Collected data on Caliper.
# Copied conversion % data from Caliper program. Converted conversion % values to percent inhibition values. Percent inhibition=(max−conversion %)/(max−min)*100, where “max” means the conversion % of DMSO control and “min” means the conversion % of no enzyme control.
# The compound numbers correspond to the compound numbers in Table 1. […] “NA” stands for “not assayed.”
row,SMILES,IC50
1,C[C@@H](O)C[C@H]1CCc2sc3ncnc(N[C@H]4CC[C@H](N(C)C)CC4)c3c21 [Compound I-53],< 5 µM
2,C[C@H](O)C[C@H]1CCc2sc3ncnc(N[C@H]4CC[C@H](N(C)C)CC4)c3c21 [Compound I-55],< 5 µM
3,"CC#CCOC[C@H]1CCc2sc3ncnc(O[C@H]4CC[C@H](N(C)C)CC4)c3c21 [Compound I-56, 4-[[(3S)-3-[(but-2-yn-1-yloxy)methyl]-7-thia-9,11-diazatricyclo[6.4.0.0[2,6]]dodeca-1(8),2(6),9,11-tetraen-12-yl]oxy]-N,N-dimethylcyclohexan-1-amine]",< 5 µM
4,"CN(C)[C@H]1CC[C@H](Oc2ncnc3sc4c(c23)[C@@H](CC(=O)NCC(N)=O)CC4)CC1 [Compound I-58, N-(2-amino-2-oxoethyl)-2-((R)-4-(((1r,4R)-4-(dimethylamino)cyclohexyl)oxy)-6,7-dihydro-5H-cyclopenta[4,5]thieno[2,3-d]pyrimidin-5-yl)acetamide]",< 5 µM
5,"C/C=C/COC[C@H]1CCc2sc3ncnc(O[C@H]4CC[C@H](N(C)C)CC4)c3c21 [Compound I-59, 4-[[(3S)-3-[[(2E)-but-2-en-1-yloxy]methyl]-7-thia-9,11-diazatricyclo[6.4.0.0[2,6]]dodeca-1(8),2(6),9,11-tetraen-12-yl]oxy]-N,N-dimethylcyclohexan-1-amine]",< 5 µM
6,"CN(C)[C@H]1CC[C@H](Oc2ncnc3sc4c(c23)[C@@H](CCc2ncco2)CC4)CC1 [Compound I-63, N,N-dimethyl-4-[[(3S)-3-[2-(1,3-oxazol-2-yl)ethyl]-7-thia-9,11-diazatricyclo[6.4.0.0[2,6]]dodeca-1(8),2(6),9,11-tetraen-12-yl]oxy]cyclohexan-1-amine]",< 5 µM

# Continued, values first:
row,IC50,SMILES
1,< 5 µM,CC[C@@H](O)C[C@H]1CCc2sc3ncnc(N[C@H]4CC[C@H](N(C)C)CC4)c3c21 [Compound I-52]
2,< 5 µM,CC[C@H](O)C[C@H]1CCc2sc3ncnc(N[C@H]4CC[C@H](N(C)C)CC4)c3c21 [Compound I-54]
3,< 5 µM,"CC[C@H](O)C[C@H]1CCc2sc3ncnc(O[C@H]4CC[C@H](N5CCOCC5)CC4)c3c21 [Compound I-64, (S)-1-((R)-4-(((1r,4R)-4-morpholinocyclohexyl)oxy)-6,7-dihydro-5H-cyclopenta[4,5]thieno[2,3-d]pyrimidin-5-yl)butan-2-ol]"
4,< 5 µM,"OCC[C@H]1CCc2sc3ncnc(O[C@H]4CC[C@H](N5CCOCC5)CC4)c3c21 [Compound I-66, 2-[(3R)-12-[[4-(morpholin-4-yl)cyclohexyl]oxy]-7-thia-9,11-diazatricyclo[6.4.0.0[2,6]]dodeca-1(12),2(6),8,10-tetraen-3-yl]ethan-1-ol]"
5,< 5 µM,"C[C@H](O)C[C@H]1CCc2sc3ncnc(O[C@H]4CC[C@H](N(C)CC(=O)N5CCCC5)CC4)c3c21 [Compound I-69, 2-(((1R,4r)-4-(((R)-5-((S)-2-hydroxypropyl)-6,7-dihydro-5H-cyclopenta[4,5]thieno[2,3-d]pyrimidin-4-yl)oxy)cyclohexyl)(methyl)amino)-1-(pyrrolidin-1-yl)ethanone]"
6,< 5 µM,"CN(C)[C@H]1CC[C@H](Oc2ncnc3sc4c(c23)[C@@H](C[C@H](O)C(F)(F)F)CC4)CC1 [Compound I-70, (S)-3-((R)-4-(((1r,4R)-4-(dimethylamino)cyclohexyl)oxy)-6,7-dihydro-5H-cyclopenta[4,5]thieno[2,3-d]pyrimidin-5-yl)-1,1,1-trifluoropropan-2-ol]"
7,< 5 µM,"CC[C@H](O)C[C@H]1CCc2sc3ncnc(O[C@H]4CC[C@H](N(C)CC(=O)N5CCCC5)CC4)c3c21 [Compound I-72, 2-(((1R,4r)-4-(((R)-5-((S)-2-hydroxybutyl)-6,7-dihydro-5H-cyclopenta[4,5]thieno[2,3-d]pyrimidin-4-yl)oxy)cyclohexyl)(methyl)amino)-1-(pyrrolidin-1-yl)ethanone]"
